Tests used:
Type in all cases: cell-based
[1] = biological target: T1, succinate receptor 1 (SUCNR1) (Homo sapiens, UniProt Q9BXA5); test: cAMP inhibition assay; also DMR, IP1, Ca2+, arrestin-3 and miniG BRET
T1 sequence (Q9BXA5 1-334): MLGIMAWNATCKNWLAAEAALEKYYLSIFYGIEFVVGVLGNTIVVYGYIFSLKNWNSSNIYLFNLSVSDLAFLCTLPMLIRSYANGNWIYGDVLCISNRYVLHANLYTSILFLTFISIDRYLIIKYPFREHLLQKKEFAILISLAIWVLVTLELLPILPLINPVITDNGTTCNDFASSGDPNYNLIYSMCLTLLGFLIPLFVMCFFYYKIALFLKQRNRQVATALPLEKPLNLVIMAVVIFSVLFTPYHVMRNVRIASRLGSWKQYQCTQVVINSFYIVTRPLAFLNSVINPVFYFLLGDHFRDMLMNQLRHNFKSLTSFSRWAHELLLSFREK

[2] = biological target: T1, succinate receptor 1 (SUCNR1); test: dynamic mass redistribution, concentration-response
[3] = biological target: T1, succinate receptor 1 (SUCNR1); test: antagonism at […] of agonist-induced IP1, Ca2+, cAMP inhibition, DMR and miniG BRET

SMILES	dynamic mass redistribution, concentration-response [2]	also measured
O=C(O)[C@H]1O[C@H]1C(=O)O [CES, cis-epoxysuccinate]	–	EC50 [1]: ~111 nM
O=C(O)CC(=O)O [malonate]	Metabolite SUCNR1 agonists (malate, oxaloacetate, methylmalonate, itaconate, malonate) showed concentration-dependent responses upon SUCNR1 stimulation	–
C=C(CC(=O)O)C(=O)O [itaconate]	Metabolite SUCNR1 agonists (malate, oxaloacetate, methylmalonate, itaconate, malonate) showed concentration-dependent responses upon SUCNR1 stimulation	–
CC(C(=O)O)C(=O)O [methylmalonate]	Metabolite SUCNR1 agonists (malate, oxaloacetate, methylmalonate, itaconate, malonate) showed concentration-dependent responses upon SUCNR1 stimulation	–
O=C(O)CCC(=O)O [SUC, succinate]	–	EC50 [1]: ~644 nM
CN1CCN(Cc2ccc(-c3cccc(C(=O)Nc4ccccc4CC(=O)O)c3)cc2)CC1 [NF56-EJ40, 2-(2-(4′-((4-methylpiperazin-1-yl)methyl)-[1,1′-biphenyl]-3-carboxamido)phenyl)acetic acid]	–	antagonism at 100 nM of agonist-induced IP1, Ca2+, cAMP inhibition, DMR and mini [3]: NF56-EJ40 also completely inhibited the agonist-induced SUCNR1-mediated IP1 formation and caused a significant shift of the cAMP inhibition curve
O=C(O)CC(=O)C(=O)O [oxaloacetate]	Metabolite SUCNR1 agonists (malate, oxaloacetate, methylmalonate, itaconate, malonate) showed concentration-dependent responses upon SUCNR1 stimulation	–
O=C(O)CC(O)C(=O)O (centres unmarked) [malate]	Metabolite SUCNR1 agonists (malate, oxaloacetate, methylmalonate, itaconate, malonate) showed concentration-dependent responses upon SUCNR1 stimulation	–

Reference: PMC12001207 (The FEBS journal, 2025)
